According to the METLIN SMRT retention time set (Domingo-Almenara et al. 2019):

Experiment: gradient 5% acetonitrile 3 min, to 50% in 2 min, to 85% in 15 min, held 3 min, 100 µL/min
Details: column: Zorbax Extend-C18 2.1 x 50 mm; eluents: water / acetonitrile, 0.1% formic acid
Procedure, shortened: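 Data were gathered over 3 months by HPLC coupled to a quadrupole time-of-flight mass spectrometer, operated in positive and negative ionization mode. Mixtures of ~100 pure standards ran on a Zorbax Extend-C18 column (2.1 × 50 mm, 1.8 μm) at 100 μL/min, with water and acetonitrile each containing 0.1% formic acid and dead and dwell volumes of 40 μL and 900 μL. Retention time was read from adduct peaks picked by computer and checked manually.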

Structure (SMILES)	RP-LC retention time [s]
COc1cc2ccccc2cc1C(=O)Nc1nccs1	888
CCC1=C(c2ccc(C)cc2)S(=O)(=O)N=C1N1CCC(C(=O)NCCCOC(C)C)CC1	844
O=C(NCCc1csc(-c2ccccc2)n1)C1CCN(C(=O)c2ccco2)CC1	749
COc1ccccc1C(=O)N1CCC2(CC1)N=C(c1ccc(Cl)cc1)NO2	865
O=C(NCc1ccco1)C1CCCN(S(=O)(=O)Cc2ccc(Cl)cc2)C1 (stereo not given)	888
Cc1ccc(CN2C(=O)CN(S(=O)(=O)c3ccccc3)CC2(C)C(=O)NCCC(C)C)cc1 (stereo not given)	1040
CC(=O)O[C@H]1C[C@@H]2OC3C=C(C)CCC3(C)[C@@]1(C)[C@@]21CO1 (stereo not given in full)	833
CCCNC(=O)c1cc(=O)[nH]c2ccccc12	620
CCS(=O)(=O)c1ccc2c(c1)N(Cc1nc(-c3ccc(F)cc3)no1)C(=O)CO2	902
O=C(c1cn(-c2cc(N3CCSCC3)ncn2)cn1)N1CCc2ccccc2C1	886
CCn1c(=O)c2ccccc2n(Cc2nc(-c3ccccc3OC)no2)c1=O	909
Nc1nc(N2CCCC2)nc2ccccc12	592
O=C(O)c1cnc(NCc2ccco2)nc1-c1ccccc1	772
CCCOC(=O)C1=C(C)NC2=C(C(=O)C(C(=O)OC)C(C)C2)C1c1ccc(N(C)C)cc1 (stereo not given)	668
Cc1cc(C)n2c(Nc3ccc(C(C)C)cc3)c(-c3cccc(Br)c3)nc2n1	1000
CCOc1ccc(C(O)Cn2ccn3nc(-c4ccccc4C)cc3c2=O)cc1 (stereo not given)	985
CN1CCC(Cc2ccc(C(=O)O)cc2)CC1	569
CCn1nc(-c2ccccc2)c(-c2ccccc2)c(C(=O)NCCN(C)C)c1=O	648
Cc1cc(C)c2c(N3CCCC3)nc(C(=O)NCc3ccc(C)o3)nc2n1	577

Structure (SMILES)	RP-LC retention time [s]
O=c1c2cc(-c3ccccc3Cl)nn2cnn1Cc1nc(-c2ccc(F)cc2)no1	1140
COc1ccc(S(=O)(=O)Nc2cc(-c3cn4ccc(C)cc4n3)ccc2C)cc1C	687
COc1ccc(OC)c(S(=O)(=O)N2CCc3nc(-c4ccccc4)[nH]c3C2)c1	536
Cc1ccc(-c2cc3c(=O)n(Cc4noc(CN5CCCC5)n4)ccn3n2)c(C)c1	686
Fc1cc(F)cc(-c2nnc(Cc3nc(-c4ccc(Br)cc4)no3)o2)c1	1150
Clc1cc2c(c(CN3CCN(c4ccccc4)CC3)c1)OCOC2	584
O=C(NCc1ccccn1)c1cccc(N2CCNC(c3ccccc3)C2)n1 (stereo not given)	564
CCNc1nc(C)cc(N2CCN(C(=O)Nc3ccccc3)CC2)n1	636
COc1ccccc1CNS(=O)(=O)c1cc(-c2[nH]ncc2C(=O)N(C)C)oc1C	666
Cc1nc2cc(N3CCCC(C(=O)O)C3)cnc2nc1C (stereo not given)	604
CCOc1ccc(C(=O)N2C[C@@H]3C[C@H]2C[C@@H]3NC(=O)c2ccccc2)cc1	757
Cc1ccc(Cl)cc1N1CCN(c2cc(C(=O)O)c3cc(NC(=O)C(C)(C)C)ccc3n2)CC1	830
Cc1cnc(-c2ccccc2)n1CCNS(=O)(=O)Cc1ccccc1F	651
CC(C)N1C(=O)c2cccnc2Sc2cc(NC(=O)c3ccsc3)ccc21	832
Cc1ccccc1NS(=O)(=O)c1ccc(-c2c(C)noc2C)cc1	924
O=C(Cc1ccsc1)NCCC1CCN(C(=O)Nc2ccccc2)CC1	792
Cn1nccc1-c1cccc(-c2noc(-c3ccccc3)n2)c1	1120
Cn1nc(-c2nnc(-c3ccc(F)cc3)o2)c2c1CCN(S(=O)(=O)c1ccc(C#N)cc1)C2	894

The remaining lines, values ahead:

RP-LC retention time [s]	Structure (SMILES)
748	O=C(Nc1ccccc1C(F)(F)F)C1CN(C(=O)c2ccc(F)c(F)c2)C1
561	CC(C)CNC(=O)C1CCN(c2nccn3nc(-c4cccs4)cc23)CC1
601	CC(C)C(=O)Nc1ccc(-n2cnc(C(=O)N3CCN(C4CCCCC4)CC3)c2)nc1
836	Cc1nc(N2CCCC2)c2c(C(=O)Nc3ccc(C)c(F)c3)c(C)oc2n1
580	CCCn1cnnc1C1CCCCN1S(=O)(=O)c1cccnc1 (stereo not given)
963	CC1(C)CC(=O)c2cn(-c3ccccc3)c(=O)c(C(=O)NC3CC3)c2C1
785	CCOC(=O)C1CCCN(C(=O)Cn2ccc3ccc(-c4nnc(C)o4)cc32)C1 (stereo not given)
603	CC(C)CC(=O)Nc1ccc2nc(N3CCN(Cc4ccccc4F)CC3)cc(C(=O)O)c2c1
799	Cn1c(=O)c(N2CCC(NC(=O)NCc3ccccc3)CC2)nc2ccccc21
564	O=C(Cn1ncc2c(N3CCN(c4ccccn4)CC3)ncnc21)Nc1ccccc1Cl
899	Cc1ccc(C)c(N(C)C(=O)C2CCCN(c3ncnc4c3nc3n4CCCCC3)C2)c1 (stereo not given)
1040	Cc1ccc(N2CCN(c3nccn4c(=O)n(CC(=O)Nc5ccc(F)c(Cl)c5)nc34)CC2)cc1
942	Cc1cccc(-n2c(=O)c3c(cc(C)n3C)n(CC(=O)Nc3ccc(C)cc3Cl)c2=O)c1
902	CN(c1nccn2c(=O)n(CC(=O)Nc3ccc(F)cc3F)nc12)C1CCCCC1
987	Cc1ccc(NC(=O)CN2C(=O)C3CCCCN3c3ccc(S(=O)(=O)N4CCCCC4)cc32)cc1 (stereo not given)
886	CCCn1cc(CCNC(=O)Nc2ccc(C)cc2Cl)c2cccnc21
781	Cc1ccccc1NC(=O)NC1CCN(c2ccccc2)C1=O (stereo not given)
789	O=C(Nc1cnn(-c2ncncc2N2CCOCC2)c1)c1cc2c(s1)CCCC2
780	Cc1nn(-c2ccccc2)c2c1N(CC(=O)NC1CCCC1)C(=O)CS2
584	CCC(=O)N1CCCC1c1nc2ccccc2n1CC(=O)N1CCCC1 (stereo not given)
775	COc1cc(OC)c(NC(=O)Cn2ccc3sccc3c2=O)cc1Cl
658	Cc1cccc(NS(=O)(=O)c2cc3n(c2)CCCNC3=O)c1C
838	C=CCn1c(C)c(CC(=O)Nc2ccc(F)c(F)c2)c(=O)n2nc(-c3ccc(C)cc3)nc12
653	CN1CCN(c2ccc(NC(=O)c3ccc(Br)cc3)c(C(=O)O)c2)CC1
1160	CC1CCC(NC(=O)c2nnn(Cc3cccc(F)c3)c2-n2cccc2)CC1 (stereo not given)
756	COc1ccc(NC(=O)CSc2nc(N3CCCCC3)nc3ccccc23)cc1Cl
1100	CCc1nc(-c2csc(S(=O)(=O)N3CCCC(C(=O)Nc4ccc(C)cc4Cl)C3)c2)no1 (stereo not given)
876	CC1CCCCN1S(=O)(=O)c1ccc2c(c1)CCC(=O)N2CC(=O)NCc1ccccc1 (stereo not given)
